The nature of this test: GSH arylation rate constants (NMR; UV-vis for fast warheads). It is filed as physicochemical. The settings on record: for k: Table S8, rate constants obtained at pH = 7; for reactivity with GSH (in words): up to 6 h. Further details: key to rate constant (k) for the reaction with GSH / k: NR = no reaction. The text has this:
We employed nuclear magnetic resonance (NMR) and UV–vis to quantify the reactivity of our 2-SP derivatives and other representative electrophiles (Figure 2) against cysteine. NMR allowed straightforward determination of reaction rate constants through dual monitoring of the consumption of the warhead and formation of the product by integration of their respective NMR signals (Figures S1–S3). It simultaneously provided a direct readout on reaction specificity and hydrolytic stability of the warhead. All measurements were carried out in KPi buffer in the presence of 5% d^6-dmso, which is generally well-tolerated by a wide range of proteins in in vitro studies. N-acetylcysteine methylester (NACME) and L-glutathione (GSH) are useful model cysteine nucleophiles for in vitro studies of electrophilic agents.[32] Mixing reference electrophile 2-methylsulfonylpyrimidine (4q) with NACME or GSH in a 1:10 ratio (pseudo-first-order conditions) allowed extraction of accurate and reproducible second order rate constants (k).
Figure 3 In vitro determination of electrophilic reactivity of compounds. (A) NMR assay setup for warhead/GSH reaction rate constant determination and chemoselectivity monitoring, over a 6 h time scale. Purple bead = GSH. Hydrolytic stability was determined in the same way over 36 h. d^4-Trimethylsilylpropanoate (TMSP, blue box) was used as an internal standard for monitoring the warhead solubility. Second-order reaction rate constants (k) were obtained from their pseudo-first-order counterparts (k′), by time-dependent normalized integration of the disappearing warhead signals. […] (B) Experimental second-order rate constants (y axis, log10 scale) for the reaction of representative 2-SP derivatives (left, 11 out of ca. 40 examples) and previously reported heteroarylsulfones (right) with GSH in a KPi buffer, pH 7.0, 20 °C. All rate constants were calculated as an average of at least two independent measurements. Numerical values and standard deviations at both pH 7.0 and 6.5, along with a full list of 2-SPs and other electrophile types tested, are presented in Tables S2–S6 and Figure S4. The horizontal dashed line marks the reaction rate of 2-methylsulfonylpyrimidine at pH 7.0, as a reference when comparing with other reagents (see main text).
To establish an accurate structure–reactivity profile of 2-SP reagents, we systematically determined their reaction rate constants for the arylation of GSH by NMR, at pH 7.0 and 6.5. This was a prerequisite to (i) quantify the influence of substitution on reaction rates; (ii) accurately assess the tunability and chemoselectivity of 2-SPs for cysteine arylation; (iii) determine the influence of pH on the reaction rates to further inform on the precise reaction mechanism; and (iv) benchmark the overall performance of 2-SPs with those of previously reported fast reacting heteroarylsulfones and other common cysteine reactive warheads (Figure 2C,D).

Setting [1] is: pH 6.5, by NMR, KPi buffer, 5% DMSO-d6.
The mark [2] stands for this setting: pH 7.0, by NMR, KPi buffer, 5% DMSO-d6.

Structures are written as SMILES.

Turning to `CSc1ncc(Cl)c(C(=O)O)n1` [2h], the “rate constant (k) for the reaction with GSH” value (“rate constant (k)” below) is, setting by setting: under setting [1], “NR”; under setting [2], “NR”. Turning to `CSc1ncccn1` [2q], the k result is “NR”. Moreover, the “rate constant (k)” value under setting [1] is listed as “NR”. For the same compound, the “rate constant (k)” value under setting [2] is given as “NR”. With `c1ccc(C2CO2)cc1` (stereo not drawn) [compound 24, reference compound], under “KPi buffer”, the “reactivity with GSH (in words)” value is recorded as “none”. In addition, under setting [2], the “rate constant (k)” value was “NR”.

With `CSc1nccc(C(F)(F)F)n1` [2l], the “rate constant (k)” value reads like this: under setting [1], “NR”; under setting [2], “NR”. `Nc1cnc(Cl)nc1` [1m]: the “rate constant (k)” value runs as follows: under setting [1], “NR”; under setting [2], “NR”.

For `COC(=O)c1ccnc(SC)n1` [2k], the “rate constant (k)” value under setting [1] is “NR” and the “rate constant (k)” value under setting [2] was “NR”. With `CSc1ncc(Cl)cn1` [2s], the “rate constant (k)” value is, setting by setting: under setting [1], “NR”; under setting [2], “NR”. As for `Clc1ncccn1` [1q], the k entry was “NR”. In addition, where the note is “KPi buffer”, the “reactivity with GSH (in words)” value is on record as “failed to induce observable arylation of GSH”. Moreover, the “rate constant (k)” value under setting [1] is recorded as “NR”. Also, the “rate constant (k)” value under setting [2] was “NR”. For `COc1cnc(SC)nc1` [2n], the “rate constant (k)” value under setting [1] was “NR” and the “rate constant (k)” value under setting [2] is “NR”.

Take `Nc1ccnc(Cl)n1` [1g]: the “rate constant (k)” value is, setting by setting: under setting [1], “NR”; under setting [2], “NR”. For `O=C(c1ccccc1)C(F)(F)F` [compound 25, reference compound], the “reactivity with GSH (in words)” value (KPi buffer) is listed as “none”. Also, the “rate constant (k)” value under setting [2] is given as “NR”.

Take `CSc1nccc(C(N)=O)n1` [2j]: the “rate constant (k)” value is listed as “NR” under setting [1] and “NR” under setting [2]. Take `c1ccc(Sc2ncccn2)cc1` [3d]: the “rate constant (k)” value under setting [2] was “NR”. For `Cc1ccnc(Cl)n1` [1c], the “rate constant (k)” value is on record as “NR” under setting [1] and “NR” under setting [2]. With `CC1(C)S[C@@H]2[C@H](N)C(=O)N2[C@H]1C(=O)O` [compound 27, reference compound], the “reactivity with GSH (in words)” value (KPi buffer) is reported as “none”. Further, under setting [2], the “rate constant (k)” value is on record as “NR”.

In the case of `O=C(O)c1ccnc(Cl)n1` [1d], the “rate constant (k)” value is “NR” under setting [1] and “NR” under setting [2]. For the compound `O=C(O)c1cnc(Cl)nc1` [1v], the “rate constant (k)” value is “Ca. 0.14 mM-1.s-1” under setting [1] and “Ca. 0.65 mM-1.s-1” under setting [2]. As for `Clc1cnc(Cl)nc1` [1s], the “rate constant (k)” value was “Ca. 0.07 mM-1.s-1” under setting [1] and “Ca. 0.26 mM-1.s-1” under setting [2]. `CS(=O)(=O)c1ncc(Cl)c(C(=O)O)n1` [4h]: the “k change (vs ref)” value (pH 7.0, ratio to rate constant of 4q, acceleration (+) or deceleration (-)) was “+7 fold”.

Regarding `CSc1ncc(Br)cn1` [2t], the “rate constant (k)” value was “NR” under setting [1] and “NR” under setting [2].

Regarding `CSc1ncc(F)cn1` [2r], the “rate constant (k)” value reads like this: under setting [1], “NR”; under setting [2], “NR”. Regarding `CSc1nccc(N)n1` [2g], the “rate constant (k)” value under setting [1] was “NR” and the “rate constant (k)” value under setting [2] is listed as “NR”. With `CSc1nccc(C(=O)O)n1` [2d], the “rate constant (k)” value runs as follows: under setting [1], “NR”; under setting [2], “NR”. On to `Clc1ncc(Br)cn1` [1t], for which the “rate constant (k)” value is recorded as “Ca. 0.025 mM-1.s-1” under setting [1] and “Ca. 0.15 mM-1.s-1” under setting [2]. Take `COc1ccnc(SC)n1` [2b]: the “rate constant (k)” value under setting [1] is listed as “NR” and the “rate constant (k)” value under setting [2] was “NR”. Consider `CC(C)(C)Sc1ncccn1` [3a], for which the “rate constant (k)” value under setting [2] is “NR”. As for `COc1cnc(Cl)nc1` [1n], the “rate constant (k)” value is “NR” under setting [1] and “NR” under setting [2]. With `CSc1ncc(C(F)(F)F)cn1` [2x], the “rate constant (k)” value is, setting by setting: under setting [1], “NR”; under setting [2], “NR”. `O=S(=O)(F)c1ccccc1` [compound 26, reference compound]: the “reactivity with GSH (in words)” value (KPi buffer) is given as “none”. Further, the “rate constant (k)” value under setting [2] was “NR”. In the case of `Cc1cc(C)nc(Cl)n1` [1a], the “rate constant (k)” value by setting is: under setting [1], “NR”; under setting [2], “NR”. For `Cc1cnc(Cl)nc1` [1o], the “rate constant (k)” value is, setting by setting: under setting [1], “NR”; under setting [2], “NR”.

With `O=C1C=CC(=O)N1Cc1ccccc1` [compound 21, N-benzylmaleimide, reference compound], under “KPi buffer”, the “reactivity with GSH (in words)” value was “heterogeneous mixture of succinimidyl products”. For the setting “pH 7.0, KPi buffer”, the “second order rate constant k with GSH” value is above 0.5 M^–1 s^–1. Under setting [2], the “rate constant (k)” value is listed as “Multiple products”. With `O=C(O)c1nc(Cl)ncc1Cl` [1h], the “rate constant (k)” value is, setting by setting: under setting [1], “NR”; under setting [2], “NR”.

For `Clc1ncc(-c2ccccc2)cn1` [1p], the “rate constant (k)” value is “NR” under setting [1] and “NR” under setting [2]. In the case of `COC(=O)c1ccnc(Cl)n1` [1k], the “rate constant (k)” value by setting is: under setting [1], “NR”; under setting [2], “NR”.

For the compound `Nc1ncccn1` [compound 17, reference compound], under setting [2], the “rate constant (k)” value is reported as “NR”.

Take `COC(=O)c1cnc(Cl)nc1` [1y]: the “rate relative to 5-NO2-MSBT / nitro-MSBT (10) (in words)” value (in vitro) is “an order of magnitude”. The “rate constant (k)” value by setting is: under setting [1], “Ca. 11 mM-1.s-1”; under setting [2], “Ca. 55 mM-1.s-1”.

In the case of `O=[N+]([O-])c1cnc(Cl)nc1` [1w], the “rate constant (k)” value under setting [1] is recorded as “NR” and the “rate constant (k)” value under setting [2] was “NR”. For `CSc1ncc(Br)c(C(=O)O)n1` [2i], the “rate constant (k)” value is, setting by setting: under setting [1], “NR”; under setting [2], “NR”.

In the case of `FC(F)(F)c1ccnc(Cl)n1` [1l], the rate constant (k) for the reaction with GSH reads like this: under setting [1], 0.00045 M⁻¹ s⁻¹; under setting [2], 0.001 ± 0.0005 M⁻¹ s⁻¹. The matching figures for `O=C(O)c1nc(Cl)ncc1Br` [1i]: “NR” and “NR”. For the compound `COC(=O)c1cnc(SC)nc1` [2y], the “rate constant (k)” value was “NR” under setting [1] and “Ca. 0.020 mM-1.s-1” under setting [2]. On the same counts, the results for `CSc1ncc([N+](=O)[O-])cn1` [2m] are “NR” and “NR”.

Turning to `COc1ccnc(Cl)n1` [1b], the “rate constant (k)” value reads like this: under setting [1], “NR”; under setting [2], “NR”. Turning to `OB1OCc2ccccc21` [compound 23, reference compound], for the setting “pH 7”, the “rate constant (k)” value is “NR”. Take `COc1cc(OC)nc(Cl)n1` [1f]: the “rate constant (k)” value runs as follows: under setting [1], “NR”; under setting [2], “NR”. `Fc1cnc(Cl)nc1` [1r]: the “rate constant (k)” value reads like this: under setting [1], “NR”; under setting [2], “NR”. `CSc1ncc(C)cn1` [2o]: the “rate constant (k)” value is reported as “NR” under setting [1] and “NR” under setting [2]. For the compound `CS(=O)(=O)c1cnccn1` [compound 18], the “reactivity with GSH (in words)” value (KPi buffer) was “completely switched off reactivity”. Also, the “rate constant (k)” value by setting is: under setting [1], “NR”; under setting [2], “NR”. `Brc1ncccn1` [compound 14, reference compound]: the k result is “NR”. As to `C=CC(=O)Nc1ccccc1` [compound 22, reference compound], where the note is “KPi buffer”, the “reactivity with GSH (in words)” value is recorded as “none”. Further, under setting [2], the “rate constant (k)” value is listed as “NR”. Consider `CCCCSc1ncccn1` [3c], for which the “rate constant (k)” value under setting [2] is reported as “NR”. As for `CSc1nccc(C)n1` [2c], the “rate constant (k)” value was “NR” under setting [1] and “NR” under setting [2].
